# Measurements taken from publication PMC12160547, “Identification of a Novel Small Molecule STING Agonist Reshaping the Immunomicroenvironment of Pancreatic Ductal Adenocarcinoma” (International Journal of Biological Sciences, 2025).
# Legend:
# m-STING = target: T1, m-STING (Mus musculus, UniProt Q3TBT3); experiment: Raw-lucia reporter activation fold; format: cell-based
# T1 construct: Raw-lucia Fold (50 μM); endogenous in cells; host or cells: RAW-Lucia
# T1 sequence (Q3TBT3 1-378): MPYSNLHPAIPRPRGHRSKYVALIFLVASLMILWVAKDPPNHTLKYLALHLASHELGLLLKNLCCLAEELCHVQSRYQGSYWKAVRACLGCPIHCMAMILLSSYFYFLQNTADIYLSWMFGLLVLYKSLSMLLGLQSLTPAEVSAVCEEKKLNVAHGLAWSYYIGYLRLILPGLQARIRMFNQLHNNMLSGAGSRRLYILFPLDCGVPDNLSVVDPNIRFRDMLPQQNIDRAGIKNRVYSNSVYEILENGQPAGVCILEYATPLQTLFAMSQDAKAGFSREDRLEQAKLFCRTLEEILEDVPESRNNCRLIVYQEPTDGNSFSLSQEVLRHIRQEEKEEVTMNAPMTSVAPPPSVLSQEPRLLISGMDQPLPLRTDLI
# STING signaling = experiment: Relative gene expression in RAW-Lucia cells (RT-qPCR); format: cell-based, mouse
# Protocol: RNA from tumor tissues or cells was extracted using the SteadyPure Universal RNA Extraction Kit (Accurate Biology) and reverse transcribed into cDNA with the Evo M-MLV Reverse Transcription Kit (Accurate Biology). Relative RNA expression levels were quantified using 2X Universal SYBR Green Fast qPCR Mix (Abclonal), and the results were recorded on the qTOWER®3 84 Real-Time PCR system.
# [1] = Pharmacokinetic parameters, i.v. and p.o.; format: in vivo; details: plasma
# [2] = Metabolite profiling in liver microsomes, 60 min incubation; format: in vitro ADME, rat; details: D166 incubated 60 min; selected ion chromatographic peak areas
# [3] = as above; format: in vitro ADME, dog; details: D166 incubated 60 min; selected ion chromatographic peak areas
# [4] = system: human STING variants (R232); experiment: Differential scanning fluorimetry (DSF); format: binding; details: n = 3
# Excerpt: (§1) human STING variants (R232) and mouse STING (R231) in differential scanning
# (§2) fluorimetry (DSF) assay. The data were shown as the mean value of fluorescence (n =
# (§3) (1 picture or pasted object on this page, not shown here)
# mouse STING (R231) = target: T2, mouse STING (R231) (Mus musculus, UniProt Q3TBT3); experiment: Differential scanning fluorimetry (DSF); format: binding; details: n = 3
# T2 sequence (Q3TBT3 1-378): T1 sequence (Q3TBT3 1-378)
# Excerpt: as §1, §2, §3
# [5] = system: STING and downstream signaling molecules; experiment: STING pathway western blot in Panc-1 cell line; format: cell-based; details: human pancreatic cell line Panc-1
# Protocol: Tumor tissues or cells were thoroughly lysed in RIPA buffer containing protease and phosphatase inhibitors. The lysates were then centrifuged to collect the supernatant. Proteins were separated by electrophoresis in MOPS buffer and subsequently transferred onto a PVDF membrane. After blocking, the membrane was sequentially incubated with the primary antibody, secondary antibody, and chemiluminescent substrate (ECL) for imaging.
# (§4) Western Blot showing cGAS-STING pathway protein expression of Panc-1 cell line
# (§5) (B) CCK8 of Panc-1 cell line when
# (§6) (C-D) Representative image (C) and statistic (D) of […]
# Panc-1 cell line = experiment: CCK8 and colony assay of Panc-1 cell line; format: cell-based, human; details: Panc-1, 10μM D166, CCK8 and colony assay
# Excerpt: as §4, §5, §6
# [6] = system: orthotopic PDAC microenvironment; experiment: Flow cytometry and scRNA-seq of orthotopic PDAC microenvironment; format: in vivo, mice
# Protocol: Bulk RNA sequencing was performed by GenePlus (China) on pancreatic cancer organoids treated with 10 μM of […] or MSA-2, compared to a control group, with three biological replicates. The sequencing data are available for access and analysis via the provided website. Single-cell RNA sequencing (scRNA-seq) was conducted by NovelBio (China) on in situ mouse pancreatic tumors following tissue digestion. The resulting sequencing data were analyzed using R software. Mouse tumors were digested using the Mouse Tumor Dissociation Kit (Miltenyi Biotec) according to the manufacturer's protocol. The resulting single-cell suspension was filtered through a 70-micron mesh to ensure a homogeneous cell population. Cells were stained with fluorescently labeled antibodies for flow cytometry at 4°C on ice for 30 minutes. After washing off unbound antibodies, fluorescence was detected using a Beckman CytoFlex S flow cytometer. For co-cultured immune cells, separated T cells and macrophages were similarly stained with flow cytometry antibodies. For cytokine staining, cells were pre-stimulated with the eBioscienceTM Cell Stimulation Cocktail for 4 hours. For intracellular protein staining, after surface staining, cells were fixed and permeabilized using the BD Cytofix/CytopermTM Fixation/Permeabilization Kit, followed by staining for intracellular proteins. Flow cytometry data were analyzed using FlowJo 10 software.
# [7] = system: subcutaneous pancreatic tumor; experiment: CD45.1 T cell or BMDM transfer into CD45.2 tumor-bearing mice; format: in vivo
# [8] = system: pancreatic tumor organoids co-cultured with T cells or macrophages; experiment: Co-culture of pancreatic tumor organoids and immune cells; format: cell-based, human
# Protocol: T cells and monocytes were isolated from the peripheral blood of patients using the EasySep™ Human CD8+ T Cell Isolation Kit and Human Monocyte Isolation Kit ([…]). CD8+ T cells were activated with anti-CD3 (5 μg/mL) and anti-CD28 (5 μg/mL) antibodies (BioLegend), while monocytes were stimulated with 50 ng/mL of M-CSF (BioLegend) for 6 days to induce differentiation into macrophages. […] On day 5, immune cells were harvested for flow cytometry analysis. Tumor organoids were photographed, viability was assessed, and organoids were embedded for HE and IHC staining at days 0, 5, and 10 of co-culture.
# Mouse tumors were digested using the Mouse Tumor Dissociation Kit (Miltenyi Biotec) according to the manufacturer's protocol. The resulting single-cell suspension was filtered through a 70-micron mesh to ensure a homogeneous cell population. Cells were stained with fluorescently labeled antibodies for flow cytometry at 4°C on ice for 30 minutes. After washing off unbound antibodies, fluorescence was detected using a Beckman CytoFlex S flow cytometer. For co-cultured immune cells, separated T cells and macrophages were similarly stained with flow cytometry antibodies. For cytokine staining, cells were pre-stimulated with the eBioscience™ Cell Stimulation Cocktail for 4 hours. For intracellular protein staining, after surface staining, cells were fixed and permeabilized using the BD Cytofix/Cytoperm™ Fixation/Permeabilization Kit, followed by staining for intracellular proteins. Flow cytometry data were analyzed using FlowJo 10 software.
# [9] = flow cytometry of tumor suspensions
# [10] = CD45.1 bone marrow-derived macrophages transferred
compound,measurement,setting,value
[2H]C([2H])([2H])Oc1cc2cc(C(=O)CCC(=O)O)sc2cc1OC([2H])([2H])[2H] [D166],Raw-lucia Fold (50 μM),m-STING,25.34 Fold
same,Relative expression (Cxcl10/actin),STING signaling,158.00 ± 2.91
same,AUC(0-inf),"[1]; iv, average of three runs",750 ng·h/mL
same,MRT inf,"[1]; iv, average of three runs",15.6 min
same,clearance,"[1]; iv, average of three runs",22.5 mL/min/kg
same,half-life,"[1]; iv, average of three runs",45 min
same,Vd,"[1]; iv, average of three runs, read-out: Vz",1.45 L/kg
same,AUC(0-inf),"[1]; po, average of three runs",2120 ng·h/mL
same,MRT inf,"[1]; po, average of three runs",66 min
same,half-life,"[1]; po, average of three runs",81 min
same,bioavailability,"[1]; p.o., oral bioavailability",93.8%
same,Relative Peak Area Abundance (%) RLM,[2],97.7%
same,Relative Peak Area Abundance (%) DLM,[3],98.6%
same,thermal stability of human STING variants (R232),[4],increased
same,thermal stability of mouse STING (R231),mouse STING (R231),increased
same,activation of STING and downstream signaling molecules,[5],dose- and time-dependent manner
same,proliferation,Panc-1 cell line,without affecting proliferation
same,proportion of ductal cells (including cancer cells) and fibroblasts,"[6]; 10 mg/kg D166, 10X single-cell sequencing",significant reduction
same,F4/80-positive macrophages among the myeloid cells,[6]; [9],significant increase
same,proportion of CD4+ and CD8+ T cells,[6]; [9],significantly increased
same,tumor progression,"[7]; CD45.1 T cells transferred, D166 concentration increased",slowed
same,expression of M1 macrophage markers (CD86 and iNOS) in CD45.1 macrophages,[7]; [10],increased
same,expression of M2 markers in CD45.1 macrophages,[7]; [10],decreased
same,"IFNG, GZMB, and PDCD1 in the CD45.1 T cells",[7]; sorted CD45.1 cells,significant upregulation
same,size and viability of pancreatic cancer organoids,"[8]; CTG assay, days 0, 5, 10 of co-culture",significant reduction
same,"IL-6, IFN-β, IFN-γ, and TNF-α levels","[8]; culture medium, ELISA",significantly increased
same,IFNG and GZMB release from T cells,[8]; flow cytometry,marked increase
same,mean fluorescence intensities (MFI) of CD86 and CD80 (M1 markers) in macrophages,[8]; flow cytometry,significantly increased
same,mean fluorescence intensities (MFI) of CD163 and CD206 (M2 markers) in macrophages,[8]; flow cytometry,significantly decreased
